Experimental data: ChEMBL document CHEMBL1201862, “PubChem BioAssay data set” (2004)
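Grown in 96-well plates, cells were treated for 48 hours with each compound at five concentrations. Insufficient inhibition: endpoint recorded as highest concentration tested. The concentration for 50% growth inhibition is given as GI50.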 Calls of active or inactive are those of the source. Rule as the data show it: active = GI50 up to about 1.1 µM and inactive = higher.

How the values were obtained:
Test in all cases: NCI-60 cell line screen, 48 h
RXF 631 = test system: RXF 631
DU-145 = test system: DU-145
Hs-578T = test system: Hs-578T
MDA-MB-231 = test system: MDA-MB-231
MDA-MB-435 = test system: MDA-MB-435
MDA-N = test system: MDA-N
PC-3 = test system: PC-3
BT-549 = test system: BT-549

Measured: GI50

N#Cc1ccc([N+](=O)[O-])cc1NC(N)=S
inactive: RXF 631 > 100 µM

CC[C@@H]1ON(C)[C@H]2CN(C)C(=O)[C@@H]12
inactive: DU-145 > 100 µM | Hs-578T > 100 µM | MDA-MB-231 > 100 µM | MDA-MB-435 > 100 µM | MDA-N > 100 µM | PC-3 > 100 µM

CC1(C)OCC=CCO1
inactive: BT-549 > 100 µM | DU-145 > 100 µM | Hs-578T > 100 µM | MDA-MB-435 > 100 µM | MDA-N > 100 µM | PC-3 > 100 µM
